Literature values in patent publication US20240358662A1, “COMPOSITIONS, METHODS AND SYSTEMS FOR AEROSOL DRUG DELIVERY” (ASTRAZENECA PHARMACEUTICALS LP, priority 2021, published 2024).

Details: for Latent Heat @ Boiling Point: at boiling point

| SMILES | Liquid Density @ 20° C. [g/mL] | Liquid Viscosity @ 20° C. (mPa · S) | Surface Tension @ 20° C. (mN/m) | Vapor Pressure @ 20° C. (kPa) | Latent Heat @ 25° C. [kJ/kg] | Latent Heat @ Boiling Point [kJ/kg] |
| --- | --- | --- | --- | --- | --- | --- |
| FC=CC(F)(F)F [HFO-1234ze, 1,3,3,3-tetrafluoropropene] | 1.18 | 0.206^3 mPa · S | 8.9 | 427 | 166.8 | 195.43 |
| FC(C(F)(F)F)C(F)(F)F [HFA-227ea, 1,1,1,2,3,3,3-Heptafluoropropane] | 1.41 | 0.267 mPa · S | 7.50 | 390 | 110.97 | 131.4 |
| C=C(F)C(F)(F)F [HFO-1234yf, 2,3,3,3-Tetrafluoropropene] | 1.11 | 0.164 mPa · S | 6.8 | 592 | 145.4 | 180.5 |
| CC(F)F [HFC-152a, 1,1-Difluoroethane] | 0.91 | 0.171 mPa · S | 10.4 | 510 | 279.1 | 318.4 |
| FCC(F)(F)F [HFA-134a, 1,1,1,2-tetrafluoroethane] | 1.23 | 0.211 mPa · S | 8.09 | 570 | 177.7 | 216.7 |
